Where “and” joins values, the source holds several entries; their conditions need not be identical. Equal entries are not always repeated. Where two headings read alike, the source gives them in different places.
Experiments:
SARS-CoV-2 PL^pro [1] = biological target: T1, SARS-CoV-2 PL^pro (Severe acute respiratory syndrome coronavirus 2, UniProt P0DTD1); experiment: biochemical; format: biochemical
[2] = system: VERO-E6, Caco-2, PK-15, and A549 cells; experiment: Cell viability MTT assay, averaged over screened cell lines; conditions: concentration causing >40% reduction in number of viable cells, 72 h, 0.5-30 µM, n/o = no cytotoxic effect observed within the concentration range
[3] = system: SARS-CoV-2 strain Slovakia/SK-BMC5/2020; experiment: microbe, parasite or virus in culture; format: cell-based
SARS-CoV-2 PL^pro [4] = biological target: T1, SARS-CoV-2 PL^pro; experiment: biochemical
SARS-CoV-2 M^pro = SARS-CoV-2 M^pro (Severe acute respiratory syndrome coronavirus 2, UniProt P0DTD1); experiment: biochemical
VERO-E6 cells = experiment: Cell viability MTT assay in VERO-E6 cells; format: cell-based, African Green Monkey; conditions: VERO-E6 cell line, 72 h
PL^pro = conditions: read-out: IC50 deubiquitinase activity; drug repurposing study; cited from earlier work
[5] = system: severe COVID-19 and hospitalisation; parameters: method as in PMID 34726479; conditions: treatment started during the first days after appearance of symptoms; cited from earlier work
[6] = protease activity, 1 h at 37 °C, 1 mM DTT, read-out: IC50 Enzyme assay PA PL^pro
[7] = Severe acute respiratory syndrome coronavirus 2, Vero C1008, 72 h, read-out: EC50 Plaque reduction assay
[8] = deubiquitinase activity, 1 h at 37 °C, 1 mM DTT, read-out: IC50 Enzyme assay DUA PL^pro
[9] = protease activity, 4 h at room temperature, 1 mM DTT, read-out: IC50 Enzyme assay PA M^pro
[10] = Severe acute respiratory syndrome coronavirus 2, Vero C1008, VERO-E6 cells, MOI 1.0, 72 h, 0.1-30 µM, n/o = no antiviral effect observed within the concentration range, read-out: EC50 Plaque reduction assay
[11] = read-out: IC50 Enzyme assay PA PL^pro, protease activity, 1 h at 37 °C, 1 mM DTT
[12] = Severe acute respiratory syndrome coronavirus 2, Vero C1008, read-out: EC50 from the sigmoidal model (Figure 3 B1-B5)
[13] = VERO-E6 cells, MOI 1.0, 72 h, 0.1-30 µM, n/o = no antiviral effect observed within the concentration range

## N#CSc1cc(SC#N)c(N)nc1N [Compound C4, PR-619, reference compound]
SARS-CoV-2 PL^pro [1]; [6]
  IC50: 0.1 µM
[2]
  CTE Cell viability MTT assay: >10.0 µM
[2]; listed as PR-619
  CTE Cell viability MTT assay: 5 to 10 µM
[3]; [7]
  EC50: 9 µM
SARS-CoV-2 PL^pro [4]; [8]
  IC50: 0.2 µM
SARS-CoV-2 M^pro; [9]
  IC50: 0.7 µM

## CCC(CC)COC(=O)[C@H](C)N[P@](=O)(OC[C@H]1O[C@@](C#N)(c2ccc3c(N)ncnn23)[C@H](O)[C@@H]1O)Oc1ccccc1 [Compound C8, Remdesivir, reference compound]
[2]
  CTE Cell viability MTT assay: n/o
[3]; [10]
  EC50: 1.8 µM

## Cc1ccc(N)cc1C(=O)N[C@H](C)c1cccc2ccccc12 [Compound C9, GRL0617, reference compound]
[3]; VERO-E6 cells, MOI 1.0, 72 h, 0.1-30 µM, n/o = no antiviral effect observed within the concentration range, read-out: EC50 Plaque reduction assay
  EC50: 2.5 µM

## CC(C)C[C@@H](NC(=O)OCc1ccccc1)C(=O)N[C@@H](CC1CCNC1=O)C(O)S(=O)(=O)O (stereo partly drawn) [Compound C10, GC376, reference compound]
[3]; [10]
  EC50: 1 µM

## O=C1/C(=C/c2ccc([N+](=O)[O-])cc2)CC(O)C/C1=C\c1ccc([N+](=O)[O-])cc1 (stereo not drawn) [Compound T97]
SARS-CoV-2 PL^pro [1]
  IC50: > 100 µM
VERO-E6 cells
  CTE in VERO-E6 cells: approximately 5 µM
[2]
  CTE Cell viability MTT assay: >5.0 µM
SARS-CoV-2 PL^pro [4]
  IC50: > 100 µM
SARS-CoV-2 M^pro
  IC50: > 100 µM

## NCCCNC(=O)OC1C/C(=C\c2ccc([N+](=O)[O-])cc2)C(=O)/C(=C/c2ccc([N+](=O)[O-])cc2)C1 (stereo not drawn) [Compound T98]
SARS-CoV-2 PL^pro [1]; [11]
  IC50: < 100 µM
VERO-E6 cells
  CTE in VERO-E6 cells: > 15 µM and 10 to 15 µM
[2]
  CTE Cell viability MTT assay: >15.0 to 30.0 µM
[3]; [7]
  EC50: 6.7 µM
[3]; [12]
  EC50: 6.69 µM
SARS-CoV-2 M^pro
  IC50: > 100 µM

## CC(C)(C)OC(=O)NCCCC[C@H](NC(=O)OC1C/C(=C\c2ccc([N+](=O)[O-])cc2)C(=O)/C(=C/c2ccc([N+](=O)[O-])cc2)C1)C(=O)O (stereo partly drawn) [Compound T105]
SARS-CoV-2 PL^pro [1]
  IC50: > 100 µM
[2]
  CTE Cell viability MTT assay: no observed cytotoxic effect and n/o
[3]; [7]
  EC50: > 30 µM
[3]; [13]
  EC50 Plaque reduction assay: no antiviral effect was observed and n/o
SARS-CoV-2 PL^pro [4]
  IC50: > 100 µM
SARS-CoV-2 M^pro
  IC50: > 100 µM

## CC(C)C[C@H](NC(=O)OC1C/C(=C\c2ccc([N+](=O)[O-])cc2)C(=O)/C(=C/c2ccc([N+](=O)[O-])cc2)C1)C(N)=O (stereo partly drawn) [Compound T120]
SARS-CoV-2 PL^pro [1]; [11]
  IC50: < 100 µM
VERO-E6 cells
  CTE in VERO-E6 cells: > 10 µM and 10 to 15 µM
[2]
  CTE Cell viability MTT assay: >10.0 µM
[3]; [7]
  EC50: 3.4 µM
[3]; [12]
  EC50: 3.43 µM
SARS-CoV-2 M^pro
  IC50: > 100 µM

## NC(=O)[C@H](Cc1ccccc1)NC(=O)OC1C/C(=C\c2ccc([N+](=O)[O-])cc2)C(=O)/C(=C/c2ccc([N+](=O)[O-])cc2)C1 (stereo partly drawn) [Compound T121]
SARS-CoV-2 PL^pro [1]
  IC50: > 100 µM
VERO-E6 cells
  CTE in VERO-E6 cells: 10 to 15 µM
[2]
  CTE Cell viability MTT assay: >10.0 to 15.0 µM
[3]; [7]
  EC50: 8.4 µM
[3]; [12]
  EC50: 8.39 µM
SARS-CoV-2 PL^pro [4]
  IC50: > 100 µM
SARS-CoV-2 M^pro
  IC50: > 100 µM

## NCCCNC(=O)OC1C/C(=C\c2ccc([N+](=O)[O-])cc2)C(O)/C(=C/c2ccc([N+](=O)[O-])cc2)C1 (stereo not drawn) [Compound T122]
SARS-CoV-2 PL^pro [1]; [11]
  IC50: < 100 µM
VERO-E6 cells
  CTE in VERO-E6 cells: > 30 µM
[2]
  CTE Cell viability MTT assay: >30.0 µM
[3]; [7]
  EC50: 17 µM
[3]; [12]
  EC50: 17 µM
SARS-CoV-2 M^pro
  IC50: > 100 µM

## COc1cc(/C=C2\CC(OC(=O)NCCCN)C/C(=C\c3ccc(O)c(OC)c3)C2=O)ccc1O (stereo not drawn) [Compound T123]
SARS-CoV-2 PL^pro [1]; [6]
  IC50: 60 µM
[3]; [13]
  EC50 Plaque reduction assay: no antiviral effect was observed and did not show any inhibitory efficiency and n/o
SARS-CoV-2 PL^pro [4]; [8]
  IC50: 75 µM
SARS-CoV-2 M^pro; [9]
  IC50: > 100 µM

## CC(C)C[C@H](N)C(=O)NCCCNC(=O)OC1C/C(=C\c2ccc([N+](=O)[O-])cc2)C(=O)/C(=C/c2ccc([N+](=O)[O-])cc2)C1 (stereo partly drawn) [Compound T124]
SARS-CoV-2 PL^pro [1]
  IC50: > 100 µM
VERO-E6 cells
  CTE in VERO-E6 cells: > 30 µM
[2]
  CTE Cell viability MTT assay: >30.0 µM
[3]; [7]
  EC50: 15.9 µM
[3]; [12]
  EC50: 15.9 µM
SARS-CoV-2 PL^pro [4]
  IC50: > 100 µM
SARS-CoV-2 M^pro
  IC50: > 100 µM

## O=[N+]([O-])c1ccc(/C=C2\CC(O)C/C(=C\c3ccc([N+](=O)[O-])cc3)C2O)cc1 (stereo not drawn) [Compound T125]
SARS-CoV-2 PL^pro [1]; [11]
  IC50: < 100 µM
[2]
  CTE Cell viability MTT assay: no observed cytotoxic effect and n/o
[3]; [13]
  EC50 Plaque reduction assay: no antiviral effect was observed and did not show any inhibitory efficiency and no antiviral activity and n/o
SARS-CoV-2 M^pro
  IC50: > 100 µM

## Cc1ccc(/C=C2\CNC/C(=C\c3ccc(C)cc3)C2=O)cc1 [NSC63283]
PL^pro
  IC50: > 100 µM

## O=C1/C(=C/c2ccc([N+](=O)[O-])cc2)CNC/C1=C\c1ccc([N+](=O)[O-])cc1 [RA-9, reference compound]
[2]
  CTE Cell viability MTT assay: >30.0 µM
[3]; [7]
  EC50: 12.1 µM

## N[C@@H](Cc1ccccc1)C(=O)N1C/C(=C\c2ccc(Cl)c(Cl)c2)C(=O)/C(=C/c2ccc(Cl)c(Cl)c2)C1 [RA-190, reference compound]
SARS-CoV-2 PL^pro [1]; [6]
  IC50: > 100 µM
[3]; [10]
  EC50: 3 µM
SARS-CoV-2 PL^pro [4]; [8]
  IC50: > 100 µM
SARS-CoV-2 M^pro; [9]
  IC50: > 100 µM

## CC(C)(C)[C@H](NC(=O)C(F)(F)F)C(=O)N1C[C@H]2[C@@H]([C@H]1C(=O)N[C@H](C#N)C[C@@H]1CCNC1=O)C2(C)C [nirmatrelvir]
[5]
  protection against severe COVID-19 and hospitalisation: approximately 90%

— paper PMC10791089, “Identification and evaluation of antiviral activity of novel compounds targeting SARS-CoV-2 virus by enzymatic and antiviral assays, and computational analysis” (Journal of Enzyme Inhibition and Medicinal Chemistry, 2024)
